We go through three compounds from ChEMBL document CHEMBL2439976, “Discovery of NMS-E973 as novel, selective and potent inhibitor of heat shock protein 90 (Hsp90)” (Bioorg Med Chem, 2013).

A short description of data set [1]: in vivo. As to conditions: Balb nu/nu, mouse, iv, 10 mg/kg.
Data set [2] is described as follows: in vivo. The following applies: Balb nu/nu, mouse, plasma, iv, 10 mg/kg.
Data set [3] is described as follows: in vivo. As to conditions: Balb nu/nu, mouse, iv, 10 mg/kg. This is another data set of the same source.
Data set [4] can be described thus: in vivo. As to conditions: Balb nu/nu, mouse, iv, 10 mg/kg. This is another data set of the same source.

Consider `CN1CCC(NC(=O)c2cc(-c3c(O)cc(O)cc3Oc3ccc(N(C)C)cc3)on2)CC1`, for which the half-life in data set [1] was 5.55 h. In addition, the AUC(0-inf) in data set [2] turned out to be 5.92 µM·h. The compound also showed a Vd in data set [3] of 19.7 L/kg. The clearance in data set [4] came to 62.3 mL/min/kg.

`CN(C)c1ccc(Oc2cc(O)cc(O)c2-c2cc(C(=O)NC3CCN(C4CCC5(CC4)OCCO5)CC3)no2)cc1` gave a half-life in data set [1] of 5.46 h. Besides, in data set [2], the AUC(0-inf) was 7.6 µM·h. The compound further returned a Vd in data set [3] of 4.94 L/kg. For the same compound, the clearance in data set [4] came out at 29.4 mL/min/kg.

In data set [1], `CC(C)Nc1ccc(Oc2cc(O)cc(O)c2-c2cc(C(=O)NC3CCN(C)CC3)no2)cc1` had a half-life of 5.44 h. The same compound yielded an AUC(0-inf) in data set [2] of 4.8 µM·h. Also, the distribution volume (Vd) in data set [3] is 18.4 L/kg. The same compound came in with a clearance in data set [4] of 64.8 mL/min/kg.

Usually half-life stands for the time needed for the level to fall by half in the phase considered. As usually defined, the AUC(0-inf) is total exposure, with the tail of the curve extrapolated. A higher AUC(0-inf) goes with more exposure. Broadly, the Vd is a proportionality between amount in the body and measured concentration, not a real space. The low end stands for little distribution into tissue, the high end for wide distribution into tissue. By clearance is commonly meant the rate of elimination divided by the concentration. Higher therefore signals efficient removal.
